Where a name gives a salt, the structure may show the parent alone.
Key:
CPZ-induced axon damage [1] = assay: Prophylactic treatment of CPZ-induced axonal damage in vivo (Bielschowsky's silver staining); design: species or system mice; conditions: 10 mg/kg oral gavage for 7 weeks, formulations HPC or GHI F505-1
From the text: The mice were fed and treated with the same method as Example 9. The Bielschowsky's silver staining was used to visualize axon fiber in mouse brains. Representative images of silver staining of mouse brains sections are shown in FIG. 10A where midline corpus callosum (CC) is delineated by dotted squares in the top panels (scale bar: 200 μm) and then shown at higher magnification in the lower panels (scale bar: 25 μm). While a linear staining pattern of continuous axon fibers is present in normal control CC, axon damage with interruption of axon fibers and demyelination is observed in the CC of CPZ-treated animals. […] Quantitative analysis of silver-stained axons is shown in FIG. 10B where axon damage is scored as follows: a score of 0 means no axon damage and a score of 4 means complete axon damage. Columns “10-A” and “10-B” indicate samples treated with Compound 1 at 10 mg/kg in formulations HPC or GHI F505-1, respectively. *p<0.05, ***p<0.001 compared with control; ## p<0.01 compared with CPZ with vehicle treatment (n=4 mice).

EAE mouse model = assay: Clinical score of mouse EAE model (pilot study); format: in vivo, C57/BL6 mice; conditions: 10 mg/ml daily from EAE onset for 20 days
Protocol: EAE mouse model was induced by inoculation of MOG35-55 protein in adult C57/BL6 mice. Mean clinical score of EAE mice treated with vehicle or Compound 1 (10 mg/ml) for a duration of 42 days after immunization was shown in FIG. 14. The treatments were applied daily from the date of EAE onset for 20 days.

MBP, NF, APP, GFAP, Iba1 = assay: Molecular markers for myelination, axon integrity and glia activation in brain sections (immunofluorescence); format: in vivo, mouse; conditions: CPZ + 10 mg/kg, trend versus CPZ
Protocol: Effects of Compound 1 on molecule markers relevant to myelination, axon integrity and gliosis were also examined in the brain sections from normal control, CPZ-treated, and CPZ plus Compound 1 treated animals. Molecules in mouse brain sections were stained with respective antibodies by immunofluorescence. The fluorescent intensity of MBP- and NF-labeled fibers were measured with Image J. The number of specific antibody-stained cells in 400×microscopic fields were counted. Although statistic analysis is still in progress, the trends of the effects are clear from the images available so far.

cerebellar slices [2] = assay: Remyelination on CPZ-induced demyelination in cerebellar slices (MBP immunofluorescence); format: cell-based, mice; conditions: 50 μM, 3 days in culture
Protocol: Specifically, cerebellar slices from 8 week-old female mice were treated with cuprizone (CPZ) to induce demyelination, and then treated with representative compound of the invention Compound 1 (50 μM) for 3 days in culture. The slices were processed for immunofluorescence staining with anti-MBP antibody. The images were captured with Nikon eclipse TE2000 microscope using Spot Advanced software (version 4.3) at 4×magnification. The fluorescence intensity of MBP of the cerebellar slice in each image was measured with NIH Image J.

IGF-2 = IGF-2 in plasma of CPZ MS animal model (ELISA); format: in vivo; conditions: 10 mg/kg oral gavage for 7 weeks, CPZ fed mice
From the text: IGF2 is a neurotrophic factor which is essential for the development and regeneration of the nervous system, and plays a pivotal role in adult neurogenesis and cognitive function (see Fernadez A M and Torres-Aleman I, 2007, Nat Rev Neurosci 13(4):225-39; Iwamoto T and Ouchi Y, 2014, Rev Neurosci 25(4):559-74). […] FIG. 11A illustrates the schematic of the study. Experimental setup was similar to that in Example 9: eight-week old female mice were fed a diet containing 0.3% (w/w) of CPZ to induce demyelination for 6 weeks. The control mice received regular mouse chow. In the meantime, CPZ fed mice received oral gavage of formulation (Vehicle) or Compound 1 (10 mg/kg) for 7 weeks. At the end of treatment, the plasma was collected and processed for analysis. The levels of IGF-2 in mouse plasma were measured using ELISA. The scatter plot of IGF-2 concentrations found in individual mice is shown in FIG. 11B. **p<0.01 of CPZ plus Compound 1-treated group compared with control (Ctl), or CPZ-treated group (n=4).

[3] = test system: CPZ-induced demyelination; assay: Prophylactic treatment of CPZ-induced demyelination in vivo (LFB staining); design: species or system mice; conditions: 10 mg/kg oral gavage for 7 weeks, formulations HPC or GHI F505-1
Protocol: As shown in FIGS. 9A-9C, the compound of the present invention (Compound 1) was able to prevent CPZ-induced demyelination in adult female mice. FIG. 9A illustrates the schematic of the study. Eight-week old female mice were fed a diet containing 0.3% (w/w) of CPZ to induce demyelination for 6 weeks. The control mice received regular mouse chow. In the meantime, CPZ fed mice received oral gavage of formulation (Vehicle) or Compound 1 (10 mg/kg) for 7 weeks. At the end of the treatment, mice were perfused, and the brains were collected and processed for analysis. The extent of myelination was examined by staining with Luxol Fast Blue (LFB). Representative images of LFB staining of mouse brain sections are shown in FIG. 9B where midline corpus callosum (CC) is delineated by dotted squares in the top panels (scale bar: 200 μm) and then shown at higher magnification in the lower panels (scale bar: 25 μm). Myelinated axons in the CC from mice fed with normal chow are stained as compacted blue (shown here as gray-colored, same for all following blue-colored pictures). […] Quantitative analysis of myelination of LFB staining is shown in FIG. 9C where myelination is scored as follows: a score of 0 means complete myelination and a score of 4 means complete demyelination. […]

CPZ-induced axon damage [4] = assay: Therapeutic treatment of CPZ-induced axon damage in vivo (silver staining); design: species or system mice; conditions: score 0 no axon damage, 4 complete axon damage, average ± SEM
From the text: Schematic of this study is depicted in FIG. 13A. Eight-week old female mice were fed a diet containing 0.3% (w/w) of CPZ to induce demyelination for 6 weeks. The control mice received regular mouse chow. The CPZ fed mice received oral gavage of formulation (Vehicle), DMF or Compound 1 at the beginning of week 6 for two weeks. At the end of treatment, the brains were collected, and post fixed, processed for morphological analysis. The axons were stained with Bielschowsky's Silver staining. Representative images of silver staining of mouse brain sections are shown in FIG. 13B where midline corpus callosum (CC) is delineated by white squares in the top panels (scale bar: 200 μm) and then shown at higher magnification in the lower panels (scale bar: 25 μm). Quantitative analysis of axon damage of silver staining is shown in FIG. 13C where axon damage is scored as follows: a score of 0 means no axon damage, and a score of 4 means complete axon damage. **p<0.01, ***p<0.001 compared with CPZ plus vehicle; ##p<0.01 compared with CPZ plus DMF (n=4-6 mice).
(§1) According to the above Examples 12 and 13, the therapeutic effects of Compound 1 and DMF on CPZ-induced demyelination and axon damage were summarized below where quantitative analysis of myelination and axon integrity in adult female mice was performed and results shown in Table 1. The scoring of myelination and axon damage was performed as described in Example 12 and Example 13. The treatments are as indicated. The average scores and SEM are shown. Statistic differences were analyzed by one way ANOVA followed by Tukey test. *p<0.05, **p<0.01, […] compared with normal control; #p<0.05, ##p<0.01, ###p<0.001 compared with CPZ plus vehicle, §§p<0.01 compared with CPZ plus DMF at 10 mg/kg (n=4-6 mice).

[5] = test system: CPZ-induced demyelination; assay: Therapeutic treatment of CPZ-induced demyelination in vivo (LFB staining); design: species or system mice; conditions: for Demyelination (Score of LFB staining): score 0 complete myelination, 4 complete demyelination, average ± SEM; for recovery from CPZ-induced demyelination and axon damage: therapeutic treatment, Examples 12 and 13
Protocol: As shown in FIGS. 12A-12C, the compound of the present invention was also tested in vivo to determine its therapeutic effect on promoting remyelination on CPZ-induced demyelination in comparison to DMF. Schematic of the study is depicted in FIG. 12A. Eight-week old mice were fed a diet containing 0.3% (w/w) of CPZ to induce demyelination for 6 weeks. The control mice received regular mouse chow. The CPZ fed mice received oral gavage of formulation (Vehicle), DMF or Compound 1 at the beginning of week 6 for two weeks. At the end of treatment, the brains were collected and, post fixed, processed for analysis. The myelin was stained with LFB stain. Representative images of LFB staining of mouse brain sections are shown in FIG. 12B where midline corpus callosum (CC) is delineated by squares in the top panels (scale bar: 200 μm) and then shown at higher magnification in the lower panels (scale bar: 25 μm). Quantitative analysis of myelination of LFB staining is shown in FIG. 12C where myelination is scored as follows: a score of 0 means complete myelination and a score of 4 means complete demyelination. *p<0.05, *** p<0.001 compared with CPZ with vehicle treatment (n=4-6 mice).
as §1

cerebellar slices [6] = assay: Remyelination on LPC-induced demyelination in cerebellar slices (MBP immunofluorescence); format: cell-based, mice; conditions: 50 μM, 3 days in culture, LPC 2 mg/mL
Protocol: Specifically, cerebellar slices from 8 week-old female mice were treated with lysophosphatidylcholine (LPC, 2 mg/mL) to induce demyelination, and then treated with representative compound of the invention, Compound 1 (50 μM), for 3 days in culture. The slices were processed for immunofluorescence staining with anti-MBP antibody. The images were captured with Nikon eclipse TE2000 microscope using Spot Advanced software (version 4.3) at 4×magnification.

Microglia = assay: LPS/IFN-induced microglia activation (Iba1 positive cells); format: cell-based, mice; conditions: 50 μM, LPS 10 ng/mL and IFN 20 ng/ml, 48 hours
Protocol: Microglia from P7 mice were treated with lipopolysaccharide (LPS, 10 ng/mL) and Interferon-gama (IFN, 20 ng/ml) to induce activation of microglia for 48 hours. To determine the effects on LPS/IFN-induced microglia activation, DMF or various embodiments of compounds of the invention (all at 50 μM) were individually added into separate culture samples 30 minutes after LPS/IFN were added. Cells were later fixed and processed for immunofluorescence (IF) staining with anti-Iba1 (ionized calcium-binding adaptor molecule 1) antibody. The number of Iba1 positive cells and the total number of cells (Hochest H33342 positive cells which includes dead and live cells) were quantified from 12 consecutive areas under fluorescent microscope with 20×objective.

[7] = test system: adult cerebellar granule neurons (CGN); assay: Adult CGN survival (Cell Counting Kit-8); format: cell-based, mice; conditions: 50 μM and 10 μM, 48 hours
Protocol: CGN cells from 8 week-old female mice (C57BL/6) were maintained in neurobasal medium with B27 supplements. 2×10^5 cells were plated in each well of a PLL-coated 48 well plate with 400 μl of culture medium. Various embodiments of novel compounds of the invention at 50 μM (FIG. 8A) and 10 μM (FIG. 8B), CNTF (10 ng/mL) or DMF (50 μM) were added respectively into the cell culture samples for 48 hours. Cell counting solution (Cell Counting Kit-8, Dojindo, 40 μL) was added to the culture, and cells were incubated at 37° C. with 5% CO2 for 20 hours. The optical densities (OD) of absorbance at 450 nm were measured with SpectraMax M3 plate reader.

[8] = 0.1 mg/kg oral gavage for two weeks
[9] = 10 mg/kg oral gavage for two weeks

Row | Compound | prevention of CPZ-induced axon damage (silver staining) (CPZ-induced axon damage [1]) | persistence of effect on clinical score after termination of treatment (EAE mouse model) | average clinical scores versus vehicle (EAE mouse model; 42 days after immunization, n=5) | APP (Axonal damage) (MBP, NF, APP, GFAP, Iba1) | GFAP (Astrogliosis) (MBP, NF, APP, GFAP, Iba1) | Iba 1 (Activated microglia) (MBP, NF, APP, GFAP, Iba1) | MBP (Myelin) (MBP, NF, APP, GFAP, Iba1) | NF (Neural fibers) (MBP, NF, APP, GFAP, Iba1) | remyelination on CPZ-induced demyelination (MBP fluorescence intensity) (cerebellar slices [2]) | level of IGF-2 in mouse plasma (IGF-2) | prevention of CPZ-induced demyelination (LFB staining) [3] | Axon damage (Score of Silver staining) (CPZ-induced axon damage [4]; [8]) | Axon damage (Score of Silver staining) (CPZ-induced axon damage [4]; [9]) | Demyelination (Score of LFB staining) [5, 8] | Demyelination (Score of LFB staining) [5, 9] | recovery from CPZ-induced demyelination and axon damage [5] | remyelination on LPC-induced demyelination (MBP fluorescence intensity) (cerebellar slices [6]) | inhibiting microglia activation (Iba1 positive cells) (Microglia) | effect on adult CGN survival [7]
1 | COC(=O)/C=C/C(=O)OCc1ccc(COC(=O)NC(=N)NC(=N)N(C)C)cc1 [Compound 1] | preserved the continuous staining pattern of axon fibers | persisted for over two weeks after termination of treatment | significantly lower average clinical scores | ↓ | ↓ | ↓ | ↑ | ↑ | promotes remyelination | significantly increase | prevents CPZ-induced demyelination | 1.33 ± 0.21 | 0.83 ± 0.31 | 2.00 ± 0.26 | 1.33 ± 0.21 | robust recovery | strong remyelination effects | significantly better efficacy in comparison to DMF | 
2 | COC(=O)/C=C/C(=O)OCCCCCCOC(=O)NC(=N)NC(=N)N(C)C [Compound 2] |  |  |  |  |  |  |  |  |  |  |  |  |  |  |  |  |  | significant capability for inhibiting microglia activation | 
3 | COC(=O)/C=C/C(=O)OC [DMF, dimethyl fumarate, reference compound] |  |  |  |  |  |  |  |  |  |  |  |  | 2.25 ± 0.25 |  | 2.25 ± 0.25 | not significant |  |  | little effect

Reference: patent US12091378B2, “Therapeutics for central nervous system disorders” (1GLOBE BIOMEDICAL CO., LTD., priority 2017, dated 2024)
